Holding throughout (experiment): NCI-60 cell line screen, 48 h
Experiment [1] relates to HOP-92 NSCLC.
Experiment [2] concerns BT-549 breast.
In experiment [3] the test system is HCT-116 colon.
The subject of experiment [4] is UACC-62 melanoma.
For experiment [5], the system named is SK-MEL-28 melanoma.
Experiment [6] concerns CAKI-1 renal.
Experiment [7] deals with MALME-3M melanoma.
Experiment [8] concerns HL-60(TB) leukemia.
The test system of experiment [9] is SF-539 CNS.
Experiment [10] concerns DU-145 prostate.

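Five concentrations, 48 hours, 96-well plates. GI50 = concentration required for 50% inhibition of growth. TGI: concentration producing complete growth inhibition.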

On to `O=C1C=C(OCC=C(Cl)Cl)C(=O)c2ccccc21`, for which the GI50 in [1] was 2680 nM; in experiment [2] it was 4940 nM; in [3], 2520 nM; in experiment [4], 2510 nM; in [5], 4910 nM; in [6] it was 23300 nM. Also, the GI50 is 2180 nM in [7], 1390 nM in experiment [8], 43900 nM in [9] and 2800 nM in experiment [10]. In addition, the TGI was 9280 nM in experiment [1]; greater than 30300 nM in experiment [2]; 7710 nM in experiment [3]; 7640 nM in [4]; 23900 nM in experiment [5]; greater than 100000 nM in [6]. For the same molecule, the TGI is 6110 nM in [7], greater than 100000 nM in [9] and 8940 nM in experiment [10].

`CN1CCN(Cc2ccc(NC(=O)c3[nH]ncc3Nc3cc(OC4CCCC4)ncn3)cc2)CC1`: the GI50 in experiment [1] is 6690 nM; in experiment [2] it was 1750 nM; in experiment [3] it was 755 nM; in [4] it was 3440 nM; in [5], 1780 nM; in experiment [6], 366 nM. The GI50 in experiment [7] was 2050 nM; in experiment [8] it was 1770 nM; in experiment [9] it was 1900 nM; in experiment [10], 2350 nM. Besides, the TGI in experiment [1] came out at 18600 nM; in experiment [2], 3970 nM; in experiment [3], 11000 nM; in experiment [4], 11100 nM; in experiment [5] it was 3870 nM; in [6], 9110 nM. Besides, the TGI in [7] stood at 5430 nM; in [8] it was 4300 nM; in experiment [9], 5020 nM; in [10] it was 12900 nM.

`CCCNC(=O)Nc1ccc2c(c1)Cc1cc(N(CCCl)CCCl)ccc1-2`: the TGI was 67800 nM in [1]; 85000 nM in experiment [2]; greater than 100000 nM in experiment [3]; greater than 100000 nM in experiment [4]; 35700 nM in [5]; greater than 100000 nM in [6]. Besides, the TGI in experiment [7] was greater than 100000 nM; in [8], greater than 100000 nM; in [9], 66200 nM; in [10] it was 60900 nM.

On to `CN(C)c1ccc(/C=N/NC(=O)c2cnc3ccccc3c2)cc1`, for which the TGI in [1], in experiment [2], in [3], in [4], in experiment [5] and in experiment [6] was greater than 100000 nM throughout. Further, the TGI in experiment [7], in [8], in experiment [9] and in [10] was greater than 100000 nM each time.

`COc1cc[nH]c1/C=C1\C(=O)Nc2ccc([N+](=O)[O-])c(N3CC[C@@H](O)C3)c21`: the GI50 in [1] is 544 nM; in experiment [2], 328 nM; in experiment [3] it was 75.9 nM; in [4] it was 338 nM; in [5] it was 277 nM; in experiment [6] it was 369 nM. Moreover, the GI50 is 921 nM in experiment [7], 83.1 nM in experiment [8], 102 nM in experiment [9] and 177 nM in experiment [10]. The TGI in [1] was found to be 2470 nM; in experiment [2] it was 1590 nM; in experiment [3], 25000 nM; in experiment [4], 762 nM; in [5], 1200 nM; in [6] it was 1630 nM. The TGI in experiment [7] came to 1970 nM; in experiment [8], 213 nM; in experiment [9] it was 386 nM; in experiment [10] it was 2830 nM.

In the case of `CNCC1CCn2c(c(C3=C(c4cn(C)c5ccccc45)C(=O)NC3=O)c3ccccc32)C1` (centres undefined), the GI50 was 130 nM in experiment [1]; 4360 nM in experiment [2]; 1820 nM in [3]; 3160 nM in [4]; 3780 nM in experiment [5]; 3680 nM in experiment [6]. Further, the GI50 in experiment [7] is 2130 nM; in [8], 3700 nM; in experiment [9], 3690 nM; in [10], 3760 nM. Also, the TGI stood at 8640 nM in experiment [1]; 10900 nM in experiment [2]; 5560 nM in experiment [3]; 6480 nM in experiment [4]; 7280 nM in [5]; 9280 nM in [6]. Besides, the TGI in experiment [7] was determined as 5520 nM; in experiment [8] it was 8610 nM; in [9], 7210 nM; in experiment [10], 8600 nM.

As to `O=C(N/N=C/c1cccc(O)c1)c1ccc(C(F)(F)F)nc1Nc1cccc(C(F)(F)F)c1`, the GI50 was 1290 nM in [1]; 760 nM in experiment [2]; 1930 nM in experiment [3]; 1810 nM in experiment [4]; 1890 nM in [5]; 1170 nM in experiment [6]. Further, the GI50 in [7] was 1360 nM; in experiment [8] it was 1560 nM; in experiment [9], 1780 nM; in experiment [10], 1820 nM. Further, the TGI stood at 4560 nM in [1]; 3410 nM in experiment [2]; 5690 nM in [3]; 4120 nM in experiment [4]; 10100 nM in [5]; 3000 nM in [6]. Moreover, the TGI is 3830 nM in experiment [7], 3450 nM in [8], 4030 nM in experiment [9] and 10700 nM in experiment [10].

For `O=C1/C(=C/c2cccc(F)c2)CN(C(=O)C(Cl)Cl)C/C1=C\c1cccc(F)c1`, the GI50 in experiment [1] was 499 nM; in [2], 252 nM; in [3], 63.4 nM; in experiment [4], 191 nM; in experiment [5], 243 nM; in experiment [6] it was 389 nM. Further, the GI50 in experiment [7] is 218 nM; in [8], 218 nM; in [9] it was 265 nM; in experiment [10] it was 392 nM. Moreover, the TGI in experiment [1] was 1440 nM; in experiment [2], 787 nM; in experiment [3] it was 239 nM; in [4], 430 nM; in [5], 601 nM; in experiment [6], 1440 nM. The TGI turned out to be 621 nM in experiment [7], 773 nM in experiment [8], 824 nM in experiment [9] and 1360 nM in experiment [10].

The record behind these values is PubChem BioAssay (NCI).
